{"source": "patent US7384911B2", "about": "“Peptides having antimicrobial properties and compositions containing them, notably for the preservation of foodstuffs” (priority 2002, dated 2008)", "key": {"Salmonella typhimurium [1]": {"tested_on": "Salmonella typhimurium", "format": "cell-based", "settings": "interval [a]-[b], tested spheniscin-2 0.2-100 μM, MSI-94 0.2-10 μM", "protocol": "(§1) The bacteria to be tested were suspended in a suitable nutritive medium of the “poor broth” type corresponding to a solution of bactotryptone at 10 g/l with the addition of NaCl 5 g/l in ultrapure water.\n(§2) Antimicrobial activities were detected by a growth inhibition test in microtitration plates (Hétru and Bulet, 1997). One deposited […] of each fraction collected in mictrotitration plates in the presence of 90 μl of culture medium containing the microorganisms (at a final concentration equivalent to 1 mDO at 600 nm).\n(§3) For the bacteria and the yeast, incubation was performed at 30° C. for 12-24 h under agitation. The growth of the microorganisms was measured by monitoring the absorbance at 600 nm by means of a spectrophotometer reader of microtitration plates.\n(§4) The antimicrobial activities expressed in minimal inhibitory concentration (MIC) of spheniscin 2 (concentrations comprised between 0.2 μM and 100 μM) were determined against bacteria, yeasts and fungi using a growth inhibition test in liquid medium in microtitration plates (for the detailed protocol see example 2.4 as well as Hétru and Bulet, 1997).\n(§5) The minimal growth inhibitory concentration (MIC) corresponds to the interval [a]-[b] in which [a] is the strongest concentration tested for which the microorganism grows and [b] is the weakest concentration tested starting at which there is 100% inhibition of growth of the microorganism (Casteels and Tempst, 1994). The control peptides were MSI-94 (a peptide of the mangainin family stemming from the skin of the batrachian Xenopus laevis and presenting a broad spectrum of antimicrobial activity; Maloy and Kari, 1995) for testing against the bacteria and yeasts; and thanatin (an antifungal peptide stemming from the insect Podisus maculiventris; Fehlbaum et al., 1996) for testing against the filamentous fungi."}, "Listeria monocytogenes": {"tested_on": "Listeria monocytogenes", "format": "cell-based", "settings": "interval [a]-[b], tested spheniscin-2 0.2-100 μM, MSI-94 0.2-10 μM", "protocol": "as §1, §2, §3, §4, §5"}, "Escherichia coli SBS 363 [2]": {"tested_on": "Escherichia coli SBS 363", "format": "cell-based", "settings": "interval [a]-[b], tested spheniscin-2 0.2-100 μM, MSI-94 0.2-10 μM", "protocol": "as §1, §2, §3, §4, §5"}, "[3]": {"tested_on": "Pseudomonas aeruginosa ATCC 82118", "format": "cell-based", "settings": "interval [a]-[b], tested spheniscin-2 0.2-100 μM, MSI-94 0.2-10 μM", "protocol": "as §1, §2, §3, §4, §5"}, "B. megaterium [4]": {"tested_on": "B. megaterium", "format": "cell-based", "settings": "interval [a]-[b], tested spheniscin-2 0.2-100 μM, MSI-94 0.2-10 μM", "protocol": "as §1, §2, §3, §4, §5"}, "S. haemolyticus [5]": {"tested_on": "S. haemolyticus", "format": "cell-based", "settings": "interval [a]-[b], tested spheniscin-2 0.2-100 μM, MSI-94 0.2-10 μM", "protocol": "as §1, §2, §3, §4, §5"}, "Klebsiella pneumoniae [6]": {"tested_on": "Klebsiella pneumoniae", "format": "cell-based", "settings": "interval [a]-[b], tested spheniscin-2 0.2-100 μM, MSI-94 0.2-10 μM", "protocol": "as §1, §2, §3, §4, §5"}, "Staphylococcus aureus": {"tested_on": "Staphylococcus aureus", "assay": "Bactericidal or bacteriostatic effect, spreading on Petri dishes and counting colonies", "format": "cell-based", "settings": "colonies counted after 24 h of incubation, Yes/No", "protocol": "(§6) The bactericidal or bacteriostatic effect of the peptide was determined by spreading on Petri dishes and counting the colonies present after 24 h of incubation."}, "Micrococcus luteus": {"tested_on": "Micrococcus luteus", "assay": "Bactericidal or bacteriostatic effect, spreading on Petri dishes and counting colonies", "format": "cell-based", "settings": "colonies counted after 24 h of incubation, Yes/No", "protocol": "as §6"}, "Nocardia asteroides": {"tested_on": "Nocardia asteroides", "assay": "Bactericidal or bacteriostatic effect, spreading on Petri dishes and counting colonies", "format": "cell-based", "settings": "colonies counted after 24 h of incubation, Yes/No", "protocol": "as §6"}, "Bacillus subtilis": {"tested_on": "Bacillus subtilis", "assay": "Bactericidal or bacteriostatic effect, spreading on Petri dishes and counting colonies", "format": "cell-based", "settings": "colonies counted after 24 h of incubation, Yes/No", "protocol": "as §6"}, "[7]": {"tested_on": "Vibrio metshnikovii NCTC 8483", "assay": "Bactericidal or bacteriostatic effect, spreading on Petri dishes and counting colonies", "format": "cell-based", "settings": "colonies counted after 24 h of incubation, Yes/No", "protocol": "as §6"}, "Salmonella typhimurium [8]": {"tested_on": "Salmonella typhimurium", "assay": "Bactericidal or bacteriostatic effect, spreading on Petri dishes and counting colonies", "format": "cell-based", "settings": "colonies counted after 24 h of incubation, Yes/No", "protocol": "as §6"}, "Escherichia coli SBS 363 [9]": {"tested_on": "Escherichia coli SBS 363", "assay": "Bactericidal or bacteriostatic effect, spreading on Petri dishes and counting colonies", "format": "cell-based", "settings": "colonies counted after 24 h of incubation, Yes/No", "protocol": "as §6"}, "[10]": {"tested_on": "V. anguillarum ATCC 19264", "assay": "Bactericidal or bacteriostatic effect, spreading on Petri dishes and counting colonies", "format": "cell-based", "settings": "colonies counted after 24 h of incubation, Yes/No", "protocol": "as §6"}, "[11]": {"tested_on": "Pseudomonas aeruginosa ATCC 82118", "assay": "Bactericidal or bacteriostatic effect, spreading on Petri dishes and counting colonies", "format": "cell-based", "settings": "colonies counted after 24 h of incubation, Yes/No", "protocol": "as §6"}, "B. megaterium [12]": {"tested_on": "B. megaterium", "assay": "Bactericidal or bacteriostatic effect, spreading on Petri dishes and counting colonies", "format": "cell-based", "settings": "colonies counted after 24 h of incubation, Yes/No", "protocol": "as §6"}, "S. haemolyticus [13]": {"tested_on": "S. haemolyticus", "assay": "Bactericidal or bacteriostatic effect, spreading on Petri dishes and counting colonies", "format": "cell-based", "settings": "colonies counted after 24 h of incubation, Yes/No", "protocol": "as §6"}, "Klebsiella pneumoniae [14]": {"tested_on": "Klebsiella pneumoniae", "assay": "Bactericidal or bacteriostatic effect, spreading on Petri dishes and counting colonies", "format": "cell-based", "settings": "colonies counted after 24 h of incubation, Yes/No", "protocol": "as §6"}, "S. saprophyticus": {"tested_on": "S. saprophyticus", "assay": "Bactericidal or bacteriostatic effect, spreading on Petri dishes and counting colonies", "format": "cell-based, Staphylococcus saprophyticus", "settings": "colonies counted after 24 h of incubation, Yes/No", "protocol": "as §6"}, "Aspergillus fumigatus": {"tested_on": "Aspergillus fumigatus", "format": "cell-based", "settings": "interval [a]-[b], tested spheniscin-2 0.2-100 μM, thanatin 0.4-41.1 μM", "protocol": "(§7) The spores of the fungus N. crassa to be tested were suspended in a suitable culture medium of the “potato infusion—glucose” type. Preference was given to the use of 12 g of potato dextrose broth medium (1/2 PDB, Difco) per 1 liter of demineralized water. Two antibiotics were added to the culture medium: cefotaxime (final concentration at 100 μg/ml) and tetracycline (final concentration at 10 μg/ml).\nas §2\n(§8) For the filamentous fungi, the incubation was performed at 37° C. in a humid atmosphere for 48 hours.\nas §4, with “1997). […]” for “1997).”"}, "Neurospora crassa": {"tested_on": "Neurospora crassa", "format": "cell-based", "settings": "interval [a]-[b], tested spheniscin-2 0.2-100 μM, thanatin 0.4-41.1 μM", "protocol": "as §7, §2, §8\nas §4, with “1997). […]” for “1997).”"}}, "note": "Residues, ends and D or L forms follow the SMILES beside them.", "data": [{"smiles": "CC[C@H](C)[C@@H]1NC(=O)[C@@H]2CCCN2C(=O)[C@H]([C@@H](C)CC)NC(=O)[C@H](CO)NC(=O)[C@@H]2CCCN2C(=O)[C@H](Cc2ccccc2)NC(=O)[C@H](CCCNC(=N)N)NC(=O)[C@@H]2CSSC[C@@H](C(=O)N[C@@H](CCCNC(=N)N)C(=O)N[C@@H](CCCNC(=N)N)C(=O)N[C@H](C(=O)N[C@@H](Cc3c[nH]c4ccccc34)C(=O)O)C(C)C)NC(=O)[C@@H]3CSSC[C@H](NC(=O)[C@H](CC(C)C)NC(=O)CNC(=O)[C@H](Cc4ccccc4)NC(=O)[C@@H](N)CO)C(=O)N[C@@H](CCCNC(=N)N)C(=O)N[C@@H](CC(C)C)C(=O)N[C@@H](CCCNC(=N)N)C(=O)N[C@@H](CCCNC(=N)N)C(=O)NCC(=O)N[C@@H](Cc4ccccc4)C(=O)N[C@@H](CSSC[C@H](NC(=O)[C@H](CCCNC(=N)N)NC(=O)CNC1=O)C(=O)N[C@@H](CO)C(=O)N[C@@H](CCCNC(=N)N)C(=O)N[C@@H](Cc1ccccc1)C(=O)N[C@@H](C(C)C)C(=O)N[C@@H](CCC(N)=O)C(=O)N3)C(=O)N[C@@H](C)C(=O)N[C@@H](CCCNC(=N)N)C(=O)NCC(=O)N[C@@H](CCCNC(=N)N)C(=O)N2", "note": "[spheniscin-2] (HELM PEPTIDE1{S.F.G.L.C.R.L.R.R.G.F.C.A.R.G.R.C.R.F.P.S.I.P.I.G.R.C.S.R.F.V.Q.C.C.R.R.V.W}$PEPTIDE1,PEPTIDE1,5:R3-33:R3|PEPTIDE1,PEPTIDE1,12:R3-27:R3|PEPTIDE1,PEPTIDE1,17:R3-34:R3$$$V2.0; N-terminus and C-terminus assumed)", "values": [{"measurement": "MIC", "setting": "Salmonella typhimurium [1]", "result": "6 to 12", "unit": "µM"}, {"measurement": "MIC", "setting": "Listeria monocytogenes", "result": "6 to 12", "unit": "µM"}, {"measurement": "MIC", "setting": "Escherichia coli SBS 363 [2]", "result": "0.8 to 1.5", "unit": "µM"}, {"measurement": "MIC", "setting": "[3]", "result": "6 to 12", "unit": "µM"}, {"measurement": "MIC", "setting": "B. megaterium [4]", "result": "0.4 to 0.8", "unit": "µM"}, {"measurement": "MIC", "setting": "S. haemolyticus [5]", "result": "1.5 to 3", "unit": "µM"}, {"measurement": "MIC", "setting": "Klebsiella pneumoniae [6]", "result": "50 to 100", "unit": "µM"}, {"measurement": "Bactericidal effect of spheniscin-2", "setting": "Staphylococcus aureus", "result": "Yes"}, {"measurement": "Bactericidal effect of spheniscin-2", "setting": "Micrococcus luteus", "result": "Yes"}, {"measurement": "Bactericidal effect of spheniscin-2", "setting": "Nocardia asteroides", "result": "Yes"}, {"measurement": "Bactericidal effect of spheniscin-2", "setting": "Bacillus subtilis", "result": "Yes"}, {"measurement": "Bactericidal effect of spheniscin-2", "setting": "[7]", "result": "Yes"}, {"measurement": "Bactericidal effect of spheniscin-2", "setting": "Salmonella typhimurium [8]", "result": "No"}, {"measurement": "Bactericidal effect of spheniscin-2", "setting": "Escherichia coli SBS 363 [9]", "result": "No"}, {"measurement": "Bactericidal effect of spheniscin-2", "setting": "[10]", "result": "No"}, {"measurement": "Bactericidal effect of spheniscin-2", "setting": "[11]", "result": "No"}, {"measurement": "Bactericidal effect of spheniscin-2", "setting": "B. megaterium [12]", "result": "Yes"}, {"measurement": "Bactericidal effect of spheniscin-2", "setting": "S. haemolyticus [13]", "result": "Yes"}, {"measurement": "Bactericidal effect of spheniscin-2", "setting": "Klebsiella pneumoniae [14]", "result": "No"}, {"measurement": "Bactericidal effect of spheniscin-2", "setting": "S. saprophyticus", "result": "No"}, {"measurement": "MIC", "setting": "Aspergillus fumigatus", "result": "3 to 6", "unit": "µM"}, {"measurement": "MIC", "setting": "Neurospora crassa", "result": "3 to 6", "unit": "µM"}]}]}
